{
  "source": "patent US12383579B2",
  "about": "“Materials and methods of using an inhibitor of plasminogen activation to treat anastomotic leak” (THE UNIVERSITY OF CHICAGO, priority 2018, dated 2025)",
  "key": {"[1]": {"test_system": "collagenolytic E. faecalis", "assay": "Quantitative culture of collagenolytic E. faecalis after V583-induced AL"}, "[2]": {"test_system": "RAW macrophages stimulated by V583", "assay": "Gelatin degradation by V583-stimulated RAW macrophages", "type": "cell-based, murine", "conditions": "10 mM TXA"}, "[3]": {"test_system": "polymicrobial communities cultured from the postoperative mouse colon", "assay": "Plasmin activity assay of polymicrobial communities from postoperative mouse colon", "type": "biochemical", "conditions": "10 mM TXA, exogenous PLG and uPA", "method": "Polymicrobial communities collected from homogenized tissue and luminal contents were cultured aerobically in nonspecific media and underwent plasmin activity assays in the presence of human PLG and uPA. […] (*p<0.05, ANCOVA). Error bars indicate means±SD. All data are representative of three separate experiments, each run in triplicate.\nPlasminogen/uPA activity. Plasmin activity assays were performed as previously described with minor modifications, and fluorescence data was analyzed per the manufacturer's instructions (50′). Incubation times were optimized for bacteria at low optical density to limit internal filter effects in fluorescence-based assays. Bacteria (when included) were grown overnight in TY media. […] A final concentration of 6 M fluorogenic substrate specific for plasmin (H-D-Val-Leu-Lys-AFC, AnaSpec) was added immediately prior to a kinetic fluorescent read with excitation wavelength 380 nm and emission wavelength 500 nm. Reads were conducted every 15 to 30 seconds over the course of 30 minutes. […] When assays were performed in human plasma, fluorescence was read for 120 minutes total.\nPlasmin activity assays were measured in polymicrobial communities cultured aerobically from homogenized luminal contents or tissue following anastomotic surgery without antibiotics and without introduction of a leak-inducing pathogen (e.g., E. faecalis, P. aeruginosa, S. marcescens). […]"}, "[4]": {"test_system": "type IV collagen degradation by V583", "assay": "Type IV collagen degradation by E. faecalis V583 with PLG and uPA", "type": "biochemical, Enterococcus faecalis", "description": "(§1) Collagen degradation. Assays were performed per the manufacturer's instructions as previously described with slight modifications (51′). Bacteria were grown overnight in TY. Optical density was normalized to 0.1 through dilution. […] Total reaction volume was 200 L. The incubation proceeded at 37° C. for 5 hours to allow for bacterial attachment to collagen and PLG binding. uPA was added and the incubation proceeded for an additional hour. Change in fluorescence over time at 480/520 nm was determined kinetically over the initial 30 minutes of the reaction."}, "[5]": {"test_system": "E. faecalis V583-induced AL", "method": "Mouse model of AL. The experiments disclosed herein used the validated model of pathogen-mediated AL in mice (8′). Ten- to 12-week-old C57BL/6 mice (Charles River) were provided standard chow and tap water ad libidum at all times. When indicated, mice received oral clindamycin (100 mg/kg gavage) and subcutaneous cefoxitin (40 mg/kg) the day prior to, and the day of, surgery. Mice underwent general anesthesia with intraperitoneal ketamine and xylocaine and laparotomy followed by transection of the colon at the colo-rectal junction followed by a primary anastomosis created with interrupted 8-0 prolene suture prior to abdominal closure with 4-0 vicryl suture in two layers. Rectal enemas containing pathogen, either E. faecalis or P. aeruginosa at an OD600 of 0.1 in 10% glycerol, were administered in 100 L enemas. E. faecalis was introduced on POD 1, 2, and 3, while P. aeruginosa was introduced only on POD 1. Mice received 100 L rectal enemas containing 50 mM TXA or vehicle control on postoperative days 1, 2, and 3. Rectal delivery with a gavage needle ensured local administration of pathogen and study drugs to the surgical site. […] Both the surgeon and the investigator performing analysis of healing were blind to the treatment group. […]"}, "[6]": {"molecular_target": "PLG with uPA and pro-MMP9 (Homo sapiens, UniProt P00747)", "sequence (P00747 20-810 limits assumed)": "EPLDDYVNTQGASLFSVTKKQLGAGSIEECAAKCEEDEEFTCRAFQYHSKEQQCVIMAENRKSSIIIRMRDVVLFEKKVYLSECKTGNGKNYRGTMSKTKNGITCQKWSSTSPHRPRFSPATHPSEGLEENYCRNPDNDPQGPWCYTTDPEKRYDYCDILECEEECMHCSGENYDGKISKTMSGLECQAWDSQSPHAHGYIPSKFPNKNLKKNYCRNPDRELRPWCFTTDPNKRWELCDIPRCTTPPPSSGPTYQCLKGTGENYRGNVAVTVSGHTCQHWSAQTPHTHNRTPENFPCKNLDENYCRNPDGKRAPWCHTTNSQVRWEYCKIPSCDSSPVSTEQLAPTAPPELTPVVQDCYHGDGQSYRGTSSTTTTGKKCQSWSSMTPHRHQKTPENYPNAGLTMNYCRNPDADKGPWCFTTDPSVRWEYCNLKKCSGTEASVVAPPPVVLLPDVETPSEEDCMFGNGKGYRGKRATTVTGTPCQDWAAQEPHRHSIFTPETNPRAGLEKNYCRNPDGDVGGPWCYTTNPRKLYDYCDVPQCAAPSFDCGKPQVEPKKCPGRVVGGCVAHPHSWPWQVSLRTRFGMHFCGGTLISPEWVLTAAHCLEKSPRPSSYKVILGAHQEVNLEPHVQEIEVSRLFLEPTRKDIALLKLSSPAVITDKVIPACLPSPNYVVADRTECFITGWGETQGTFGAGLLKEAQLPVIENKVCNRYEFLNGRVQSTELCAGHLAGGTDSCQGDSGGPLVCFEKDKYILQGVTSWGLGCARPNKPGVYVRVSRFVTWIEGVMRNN", "assay": "Collagen/gelatin degradation by PLG, uPA and pro-MMP9 in a sterile system", "type": "biochemical", "method": "(§3) Collagen degradation. Assays were performed per the manufacturer's instructions as previously described with slight modifications (51′). Bacteria were grown overnight in TY. Optical density was normalized to 0.1 through dilution. Bacteria were then incubated with fluorescein-labeled type I collagen, type IV collagen, or gelatin according to the manufacturer's instructions (ThermoFisher), human PLG at 250 nM and TXA. Total reaction volume was 200 L. The incubation proceeded at 37° C. for 5 hours to allow for bacterial attachment to collagen and PLG binding. uPA was added and the incubation proceeded for an additional hour. Change in fluorescence over time at 480/520 nm was determined kinetically over the initial 30 minutes of the reaction."}, "[7]": {"molecular_target": "FITC-PLG at the anastomosis (Homo sapiens, UniProt P00747)", "sequence (P00747 20-810 limits assumed)": "as above", "assay": "In vivo deposition of FITC-PLG at surgical anastomoses", "design": "species or system mice", "conditions": "TXA enema one hour prior to sacrifice, 48 and 72 hours post-operative", "method": "Mice underwent anastomosis without exposure to antibiotics or exogenous pathogen followed by intraperitoneal injection with FITC-PLG and either TXA or vehicle control enema one hour prior to sacrifice. Three animals per treatment group were sacrificed at various time points. […] Either TXA or water vehicle enema was administered along with systemic FITC-PLG injection one hour prior to sacrifice. […] Total FITC-PLG fluorescent signal was quantified in all mice as integrated density/area. […] A segment of anastomotic tissue collected from a mouse that received no enemas at 24 hours post-operative was observed. FITC-PLG fluorescence intensity is spatially quantified across the length of the tissue.\nMean FITC staining intensity was quantified as integrated density/area at the anastomotic sites of three mice per treatment group at the 48- and 72-hour time points."}, "[8]": {"molecular_target": "PLG activation by E. faecalis V583 (Homo sapiens, UniProt P00747)", "sequence (P00747 20-810)": "as the sequence (P00747 20-810 limits assumed) above", "type": "biochemical", "method": "Plasminogen/uPA activity. Plasmin activity assays were performed as previously described with minor modifications, and fluorescence data was analyzed per the manufacturer's instructions (50′). Incubation times were optimized for bacteria at low optical density to limit internal filter effects in fluorescence-based assays. Bacteria (when included) were grown overnight in TY media. OD600 was normalized by dilution to 0.1, equivalent to 8×10^7 CFU/mL. Samples at OD 0.1 were diluted 1:10 in the final reaction through the addition of media and dissolved substrates. Bacteria were incubated with 250 nM human glu-plasminogen (Haematologic technologies) for two hours at 37° C. TXA (Fisher) was added concomitantly with PLG. […] A final concentration of 6 M fluorogenic substrate specific for plasmin (H-D-Val-Leu-Lys-AFC, AnaSpec) was added immediately prior to a kinetic fluorescent read with excitation wavelength 380 nm and emission wavelength 500 nm. Reads were conducted every 15 to 30 seconds over the course of 30 minutes. […] When assays were performed in human plasma, fluorescence was read for 120 minutes total.\nPlasmin or uPA activity is expressed as initial reaction velocity calculated from change in fluorescence over time during the initial phase of the reaction, when pseudo-first order kinetics determine the rate due to high substrate concentrations where a linear rise in fluorescence is observed. […]"}, "[9]": {"test_system": "RAW macrophages", "assay": "PLG activation by RAW macrophages stimulated with E44 conditioned media", "type": "cell-based, murine", "conditions": "TXA 10 mM, PLG 250 nm, 4 hours", "method": "(A), E. faecalis E44 was grown in TY media overnight, and cell-free conditioned media (E44s) was applied to RAW macrophages for 4 hours. PLG, 250 nm, was included in the reaction. TXA, 10 mM, was added when needed. PLG activation was measured by fluorogenic substrate cleavage. “RAW” column is naïve RAW. *p<0.05, n=6/group. (B), Conditioned media after co-interaction of macrophages with E. faecalis E44 (named RAW/E44s) was applied to naïve RAW macrophages for 4 hours. PLG, 250 nm, and MMP9, 1 nM, were in all reactions. TXA, 10 mM, was added when needed. “RAW+RAWs” column is naïve macrophages incubated with conditioned media of RAW macrophages (no E. faecalis E44). *p<0.05, n=6/group.\nRAW 264.7 or J774 murine macrophages were incubated at 37° C. and 5% CO2 in Dulbecco's modified eagle media (DMEM) with 10% fetal bovine serum, penicillin/streptomycin and antifungals during growth. For plasmin activity assays, cells were plated at 10^4 cells/well on a 96-well plate in phenol-free DMEM with 1% FBS. Added bacteria were in low volumes of TY.\nRAW 267.4 murine macrophages are co-incubated with E44, reasoning that bacteria and macrophages regularly co-interact in healing gut tissue. […] To confirm the expectation, naïve macrophages were stimulated with conditioned media from E44 overnight culture."}, "[10]": {"test_system": "E. faecalis", "assay": "Intrinsic bacterial type IV collagen degradation in the absence of PLG", "type": "biochemical, Enterococcus faecalis", "method": "as §3"}, "[11]": {"test_system": "type IV collagen degradation by collagenolytic E. faecalis E44", "assay": "Collagen degradation by E. faecalis E44 with PLG, uPA and MMP9", "type": "biochemical, Enterococcus faecalis", "conditions": "fluorescently tagged type IV collagen", "description": "as §1\n(§2) The role of activated plasminogen (PLG) in anastomotic leak. […] Co-incubation of E44 with murine macrophages ([…]) was performed for studies involving conditioned media. Twenty-week-old male C57BL/6 mice underwent the validated model of E44-induced AL that includes preoperative antibiotics to defaunate the colon, surgical transection and anastomosis of the colon and introduction of E44 in 10% glycerol to the surgical site via rectal enema on postoperative day 1. […] Anastomotic healing was assessed blindly using a validated anastomotic healing score (AHS): 0=uncomplicated healing, 1=flimsy adhesions, 2=dense adhesions, 3=abscess, and 4=gross anastomotic disruption. AL was defined as AHS 3 or above."}, "[12]": {"test_system": "E. faecalis E44-induced AL", "assay": "Mouse model of E44-induced anastomotic leak", "type": "in vivo, C57BL/6 mice", "description": "as §2"}, "[13]": {"test_system": "P. aeruginosa-induced anastomotic leak", "assay": "Mouse model of P. aeruginosa-induced anastomotic leak", "type": "in vivo, mice", "description": "Mouse model of AL. The experiments disclosed herein used the validated model of pathogen-mediated AL in mice (8′). Ten- to 12-week-old C57BL/6 mice (Charles River) were provided standard chow and tap water ad libidum at all times. When indicated, mice received oral clindamycin (100 mg/kg gavage) and subcutaneous cefoxitin (40 mg/kg) the day prior to, and the day of, surgery. Mice underwent general anesthesia with intraperitoneal ketamine and xylocaine and laparotomy followed by transection of the colon at the colo-rectal junction followed by a primary anastomosis created with interrupted 8-0 prolene suture prior to abdominal closure with 4-0 vicryl suture in two layers. Rectal enemas containing pathogen, either E. faecalis or P. aeruginosa at an OD600 of 0.1 in 10% glycerol, were administered in 100 L enemas. E. faecalis was introduced on POD 1, 2, and 3, while P. aeruginosa was introduced only on POD 1. […] Rectal delivery with a gavage needle ensured local administration of pathogen and study drugs to the surgical site. Rules for stopping the experiment were enacted if mice appeared moribund or in any distress whereby they were sacrificed immediately. There were three deaths prior to planned sacrifice, all determined secondary to feculent peritonitis due to AL. Both the surgeon and the investigator performing analysis of healing were blind to the treatment group. […]"}, "[14]": {"test_system": "E. faecalis", "assay": "E. faecalis growth (OD600 over four hours)", "type": "cell-based, Enterococcus faecalis", "conditions": "TXA added to culture medium", "source_text": "FIG. 44. […] Figures are representative of three separate experiments, each run in triplicate. Error bars indicate means±SD."}},
  "note": "“And” between values parts separate entries of the source, which are not always exact repeats. Identical values can stand only once. “Also recorded” adds a separate entry of the source.",
  "data": [
    {"smiles": "NC[C@H]1CC[C@H](C(=O)O)CC1", "note": "[TXA, tranexamic acid]", "values": [
      {"measurement": "collagenolytic E. faecalis in anastomotic luminal contents", "setting": "[1]; POD 3, versus water enema", "value": "significantly decreased"},
      {"measurement": "CFU/mg collagenolytic E. faecalis in anastomotic tissue", "setting": "[1]; POD 8, versus water enema", "value": "significantly fewer"},
      {"measurement": "collagenolytic E. faecalis in anastomotic luminal contents", "setting": "[1]; POD 8, versus water enema", "value": "persisted but did not reach statistical significance"},
      {"measurement": "CFU/mg collagenolytic E. faecalis in anastomotic tissue", "setting": "[1]; day 3, versus water enema", "value": "no difference was observed"},
      {"measurement": "gelatin degradation in V583-stimulated macrophages", "setting": "[2]; PLG, uPA, 6 hours, no added pro-MMP9", "value": "significantly inhibited gelatin degradation"},
      {"measurement": "gelatin degradation in V583-stimulated macrophages", "setting": "[2]; with added pro-MMP9", "value": "significantly diminished"},
      {"measurement": "plasmin-activating activity of polymicrobial communities", "setting": "[3]", "value": "significantly inhibited"},
      {"measurement": "type IV collagen degradation by V583 with PLG and uPA", "setting": "[4]; V583, PLG, uPA and TXA", "value": "concentration-dependent inhibition"},
      {"measurement": "reduction of bacterial collagen degradation", "setting": "[4]; same concentration levels as for PLG activation (FIG. 23)", "value": "over 80%"},
      {"measurement": "mean anastomotic healing score (AHS)", "setting": "[5]; 100 μL enema of 50 mM TXA POD 1, 2, 3, POD 8, vehicle 2.7±0.2", "value": "1.5±0.2"},
      {"measurement": "trichrome staining of POD8 anastomotic tissue", "setting": "[5]; TXA enema versus vehicle with AL", "value": "increased quantity and organization of fibroblastic products in the submucosa"},
      {"measurement": "gelatin / type IV collagen degrading activity of PLG with uPA and pro-MMP9", "setting": "[6]", "value": "inhibited in a concentration-dependent manner"},
      {"measurement": "FITC-PLG positivity at the anastomosis (integrated density/area)", "setting": "[7]", "value": "significantly decreased the amount of FITC-PLG positivity at the anastomosis at both time points"},
      {"measurement": "reduction in PLG activation by E. faecalis", "setting": "[8]; in vitro, concentrations lower than circulating concentration after PO dosing (FIG. 23)", "value": 20, "unit": "%"},
      {"measurement": "PLG activation by V583 in the presence of uPA", "setting": "[8]; plasmin activity assay, PLG 250 nM, uPA", "value": "inhibited PLG activation by V583 in a concentration-dependent manner"},
      {"measurement": "PLG activation by macrophages stimulated with E44 conditioned media", "setting": "[9]", "value": "This effect was inhibited"},
      {"measurement": "intrinsic bacterial type IV collagen degradation activity", "setting": "[10]", "value": "no effect"},
      {"measurement": "collagen degradation by E44 with PLG, uPA and MMP9", "setting": "[11]", "value": "inhibited by TXA in a concentration-dependent fashion; also recorded: collagen degradation was inhibited"},
      {"measurement": "collagen degradation by E44 with PLG, uPA and MMP9", "setting": "[11]; listed as tranexamic acid", "value": "inhibited in a concentration-dependent manner"},
      {"measurement": "overall healing (AHS) compared to vehicle control", "setting": "[12]; TXA 0.75 mg/kg rectal enema POD 1, 2 and 3, POD 8", "value": "significantly superior"},
      {"measurement": "mean anastomotic healing score (AHS)", "setting": "[12]; TXA 0.75 mg/kg rectal enema, scored postoperative day 8, vehicle 2.8", "value": 1.4},
      {"measurement": "clinical / gross leak", "setting": "[13]; 5 mice per group, enema POD 1, 2, 3", "value": "None of the mice"},
      {"measurement": "anastomotic healing score (AHS)", "setting": "[13]; 100 μL enema POD 1, 2, 3 (50 mM TXA in water or PBS), POD 8, water 3.8±0.4", "value": "1.6±0.5 and 1.6+/−0.6"},
      {"measurement": "bacterial growth (change in OD600 over four hours)", "setting": "[14]", "value": "no effect on bacterial growth"}
    ]}
  ]
}
